# Source: patent US20260183274A1, “PDK1 REGULATORY COMPOUND AND COMPOSITION CONTAINING THE SAME” (PROVIBIO CO., LTD., priority 2024, published 2026)
# How the values were obtained:
# [1] = test system: HCT-116 colon cancer cell lines; test: Matrigel Invasion Assay, HCT-116; type: cell-based, human; details: 24 hours treatment, FIG. 30
# Method: To evaluate the metastasis inhibitory efficacy of the compounds of the present invention on HCT-116 colon cancer cell lines, an Invasion Assay using Matrigel was performed to assess the cells' invasion ability.
# First, Matrigel was thawed on ice in RPMI-1640 medium without FBS, then diluted with DMEM at a ratio of 1:20.
# The diluted Matrigel mixture was applied to the upper chamber at 100 μl per well, and 750 μl of RPMI-1640 without FBS was added to the lower chamber.
# The plates were then incubated at 37° C. for 1 hour to allow the Matrigel to solidify.
# After coating, the Matrigel mixture in the upper chamber was removed using a pipette, and the chamber was washed with RPMI without FBS.
# Human-derived colorectal cancer cell line HCT-116, obtained from the Korean Cell Bank, was cultured in RPMI-1640 medium containing 10% FBS.
# Following stabilization, the cells were harvested using Trypsin-EDTA treatment, centrifuged at 1,200 rpm for 3 minutes, the supernatant was removed, and the cells were resuspended in the same medium, the medium in the lower chamber was replaced with 750 μl of RPMI-1640 supplemented with 10% FBS, and the cells were seeded into the upper chamber at a density of 5×10^4 cells/well.
# The cells were cultured for 24 hours after attachment, and then the compounds according to the present invention (G078, G085, G086, G088, G089, PBK-2024-010, PBK-2025-010, PBK-2025-013, PBK-2025-016) and the control substance DMSO were diluted and added to the upper chamber after removing the medium.
# Additionally, the medium in the lower chamber was replaced with fresh RPMI-1640 containing FBS, and the culture was continued.
# After an additional 24 hours, the medium was removed, and 1 ml of methanol was added for 10 minutes to fix the cells.
# Subsequently, 1 ml of Hematoxylin was added and reacted for 5 minutes, followed by 1 ml of Eosin, which was reacted for 30 seconds. The sample was then washed with distilled water (DW).
# After staining was complete, any remaining cells in the upper chamber were removed. Finally, the infiltrated cells were observed under a microscope, photographed, and the degree of infiltration was analyzed.
# [2] = test system: T cells isolated from mouse spleens; test: T cell proliferation inhibition (CFSE flow cytometry, anti-CD3/anti-CD28 stimulation); type: cell-based; details: mouse spleen T cells, 3 days; for inhibition at 0.01 µM / inhibition at 0.1 µM / inhibition at 1 µM / inhibition at 10 µM / inhibition at 30 µM / inhibition at 50 µM: Mus musculus, T-cell, 72 h, read-out: Proliferation inhibition rate (%)
# Procedure, shortened: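 Proliferation inhibition (%) came from flow cytometry of CFSE dilution after 3 days' culture at 37 °C with compound (10 nM, 100 nM, 1, 10, 30, 50 μM; triplicate wells). Cells were magnetically purified T cells from C57BL/6 mouse spleens, 2×10^5 per well, stimulated with 0.5 μg/mL each anti-CD3 and anti-CD28.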
# [3] = test system: Human B Lymphocyte cell line, SU-DHL-8; test: Relative cell viability CCK-8, SU-DHL-8; type: cell-based; details: for viability at 1 µM / viability at 10 µM / viability at 30 µM / viability at 50 µM: Homo sapiens, SU-DHL-8, 48 h; for viability at 1 µM: read-out: Relative cell viability (%), SU-DHL-8, 1 μM; for viability at 10 µM: read-out: Relative cell viability (%), SU-DHL-8, 10 μM; for viability at 30 µM: read-out: Relative cell viability (%), SU-DHL-8, 30 μM; for viability at 50 µM: read-out: Relative cell viability (%), SU-DHL-8, 50 μM
# Procedure, shortened: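 Cells grown in RPMI-1640 with 10% FBS, treated with compound at several concentrations, then given CCK-8 for 4 h at 37° C. Viability expressed as percent of DMSO-treated cells.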
# [4] = test system: Human Colorectal Carcinoma cell line, HCT-116; test: Relative cell viability CCK-8, HCT-116; type: cell-based; details: Homo sapiens, HCT-116, 48 hours
# Method: (§1) Human-derived breast cancer cell line MCF-7, human-derived lung cancer cell line A549, human-derived colorectal cancer cell line HCT-116, human pancreatic cancer cell line AsPC-1, glioblastoma cell line A172, and melanoma cell line Malme-3M were obtained from the Korean Cell Bank. gastric cancer cell line SNU-719, and bladder cancer cell line T24 were cultured in RPMI-1640 medium containing 10% FBS.
# (§2) Following stabilization, the cells were harvested using Trypsin-EDTA treatment, centrifuged at 1,200 rpm for 3 minutes, the supernatant was removed, and the cells were resuspended in the same medium. They were then seeded into a 96-well plate (Costar 96-well cell culture plate, Corning) at 100 μL per well, and the conditions were adjusted as indicated in Table 5.
# (§3) The cells were cultured in a 5% CO2 incubator at 37° C. for 24 hours, and after stabilization of the cells, each plate was washed with 200 μL of PBS per well and treated with 50 μL of culture medium per well.
# (§4) After that, 10 μL of CCK-8 was added to each well, and the plate was incubated again at 37° C. in a 5% CO2 incubator for 2 hours.
# (§5) In other words, when the survival rate of untreated cells (DMSO) is set at 100%, the relative cell survival rate in each group treated with the drug at different concentrations is indicated.
# [5] = test system: Human Gastric cancer cell, SNU-719; test: Relative cell viability CCK-8, SNU-719; type: cell-based; details: 48 hours
# Method: as §1, §2, §3, §4, §5
# [6] = test system: Human Pancreas Adenocarcinoma cell line, AsPC-1; test: Relative cell viability CCK-8, AsPC-1; type: cell-based; details: 48 hours; for viability at 1 µM: ASPC1, 1 μM; for viability at 10 µM: ASPC1, 10 μM; for viability at 30 µM: ASPC1, 30 μM; for viability at 50 µM: ASPC1, 50 μM
# Method: as §1, §2, §3, §4, §5
# [7] = test system: Human Bladder cancer cell, T24; test: Relative cell viability CCK-8, T24; type: cell-based; details: Homo sapiens, 48 h
# Method: as §1, §2, §3, §4, §5
# [8] = test system: Human Head and Neck cancer, Fadu; test: Relative cell viability CCK-8, Fadu; type: cell-based; details: Homo sapiens, FaDu, Fadu cells, relative to untreated cells
# Method: Human-derived head and neck cancer cell line Fadu and osteosarcoma cell line Saos-2 were cultured in MEM medium containing 10% FBS, 100 U/mL penicillin, and 100 μg/mL streptomycin.
# as §2, §3, §4, §5
# [9] = 48 hours, untreated (DMSO) = 100%
compound,measurement,setting,value
12-(4-hydroxypiperazin-1-yl)dodecyl-N-(6-aminopurazin-2-yl) carboxamide [Compound 10],Number of infiltrated cells (invasion),[1],reduction in the number of infiltrated cells
same,Proliferation inhibition rate (%),[2]; compound 10 nM,100.00%
same,Proliferation inhibition rate (%),[2]; compound 100 nM,100.00%
same,Proliferation inhibition rate (%),[2]; compound 1 μM,100.00%
same,Proliferation inhibition rate (%),[2]; compound 10 μM,100.00%
same,Proliferation inhibition rate (%),[2]; compound 30 μM,100.00%
same,Proliferation inhibition rate (%),[2]; compound 50 μM,100.00%
"Nc1ncccc1C(=O)NCCCCCCCCCCCCN1CC(F)C1 [Compound 52, 2-Amino-N-(12-(3-fluoroazetidin-1-yl)dodecyl)nicotinamide]",Number of infiltrated cells (invasion),[1],reduction in the number of infiltrated cells
same,viability at 1 µM,[3]; [9],14.2%
same,viability at 10 µM,[3]; [9],11.6%
same,viability at 30 µM,[3]; [9],10.1%
same,viability at 50 µM,[3]; [9],9.15%
same,viability at 1 µM,[4],33.6%
same,viability at 10 µM,[4],13.3%
same,viability at 30 µM,[4],12.7%
same,viability at 50 µM,[4],11.8%
same,inhibition at 0.01 µM,[2]; compound 10 nM,11.3%
same,inhibition at 0.1 µM,[2]; compound 100 nM,13.8%
same,inhibition at 1 µM,[2]; compound 1 μM,100%
same,inhibition at 10 µM,[2]; compound 10 μM,100%
same,inhibition at 30 µM,[2]; compound 30 μM,100%
same,inhibition at 50 µM,[2]; compound 50 μM,100%
same,viability at 1 µM,[5]; 1 μM,41.2%
same,viability at 10 µM,[5]; 10 μM,35.9%
same,viability at 30 µM,[5]; 30 μM,35.5%
same,viability at 50 µM,[5]; 50 μM,35%
"CC(C)(C)OC(=O)N[C@H]1CCN(CCCCCCCCCCCCNC(=O)c2cccnc2N)C1 [Compound 49, tert-Butyl(S)-(1-(12-(2-aminonicotinamido)dodecyl)pyrrolidin-3-yl) carbamate]",Number of infiltrated cells (invasion),[1],reduction in the number of infiltrated cells
same,"Relative cell viability (%), SU-DHL-8","[3]; 1 μM, 48 hours, untreated (DMSO) = 100%",8.93%
same,"Relative cell viability (%), SU-DHL-8","[3]; 10 μM, 48 hours, untreated (DMSO) = 100%",8.02%
same,"Relative cell viability (%), SU-DHL-8","[3]; 30 μM, 48 hours, untreated (DMSO) = 100%",7.48%
same,"Relative cell viability (%), SU-DHL-8","[3]; 50 μM, 48 hours, untreated (DMSO) = 100%",4.09%
same,Proliferation inhibition rate (%),[2]; compound 10 nM,−22.61%
same,Proliferation inhibition rate (%),[2]; compound 100 nM,100.00%
same,Proliferation inhibition rate (%),[2]; compound 1 μM,100.00%
same,Proliferation inhibition rate (%),[2]; compound 10 μM,100.00%
same,Proliferation inhibition rate (%),[2]; compound 30 μM,100.00%
same,Proliferation inhibition rate (%),[2]; compound 50 μM,100.00%
"Nc1ncccc1C(=O)NCCCCCCCCCCCCN1CCc2ccccc21 [Compound 89, 2-Amino-N-(12-(indolin-1-yl)dodecyl)nicotinamide]",viability at 1 µM,[3]; [9],1.33%
same,viability at 10 µM,[3]; [9],0.82%
same,viability at 30 µM,[3]; [9],0.48%
same,"Relative cell viability (%), SU-DHL-8","[3]; human, 48 h, 50 µM",−0.86%
same,viability at 1 µM,[6],30.3%
same,viability at 10 µM,[6],19.2%
same,viability at 30 µM,[6],17.8%
same,viability at 50 µM,[6],17.8%
same,inhibition at 0.01 µM,[2]; compound 10 nM,-3.34%
same,inhibition at 0.1 µM,[2]; compound 100 nM,100%
same,inhibition at 1 µM,[2]; compound 1 μM,100%
same,inhibition at 10 µM,[2]; compound 10 μM,100%
same,inhibition at 30 µM,[2]; compound 30 μM,100%
same,inhibition at 50 µM,[2]; compound 50 μM,100%
"CN(C)C1CCCCN(CCCCCCCCCCCCNC(=O)c2cccnc2N)C1 (stereo not drawn) [Compound 45, 2-Amino-N-(12-(3-(dimethylamino)azepan-1-yl)dodecyl)nicotinamide]",viability at 1 µM,[7],9.91%
same,viability at 10 µM,[7],11%
same,viability at 30 µM,[7],9.95%
same,viability at 50 µM,[7],9.04%
same,viability at 1 µM,[3]; [9],1.91%
same,viability at 10 µM,[3]; [9],1.27%
same,viability at 30 µM,[3]; [9],0.53%
same,"Relative cell viability (%), SU-DHL-8","[3]; human, 48 h, 50 µM",−1.31%
same,inhibition at 0.01 µM,[2]; compound 10 nM,0.16%
same,inhibition at 0.1 µM,[2]; compound 100 nM,100%
same,inhibition at 1 µM,[2]; compound 1 μM,100%
same,inhibition at 10 µM,[2]; compound 10 μM,100%
same,inhibition at 30 µM,[2]; compound 30 μM,100%
same,inhibition at 50 µM,[2]; compound 50 μM,100%
same,viability at 1 µM,[8],29.8%
same,viability at 10 µM,[8],74.1%
same,viability at 30 µM,[8],60%
same,viability at 50 µM,[8],18.2%
"Nc1ncccc1C(=O)NCCCCCCCCCCCCN1CCSC1 [Compound 31, 2-Amino-N-(12-(thiazolidin-3-yl)dodecyl)nicotinamide]",viability at 1 µM,[7],7.59%
same,viability at 10 µM,[7],7.06%
same,viability at 30 µM,[7],7.58%
same,viability at 50 µM,[7],6.92%
same,viability at 1 µM,[3]; [9],5.57%
same,viability at 10 µM,[3]; [9],4.36%
same,viability at 30 µM,[3]; [9],1%
same,viability at 50 µM,[3]; [9],0.23%
same,viability at 1 µM,[4],11.6%
same,viability at 10 µM,[4],13.2%
same,viability at 30 µM,[4],12.3%
same,viability at 50 µM,[4],12%
same,viability at 1 µM,[6],40.8%
same,viability at 10 µM,[6],41%
same,viability at 30 µM,[6],39.4%
same,viability at 50 µM,[6],36.6%
same,inhibition at 0.01 µM,[2]; compound 10 nM,8.01%
same,inhibition at 0.1 µM,[2]; compound 100 nM,77.2%
same,inhibition at 1 µM,[2]; compound 1 μM,100%
same,inhibition at 10 µM,[2]; compound 10 μM,100%
same,inhibition at 30 µM,[2]; compound 30 μM,100%
same,inhibition at 50 µM,[2]; compound 50 μM,100%
"Nc1ncccc1C(=O)NCCCCCCCCCCCCN1CCC(O)CC1 [Compound 47, 2-Amino-N-(12-(4-hydroxypiperidin-1-yl)dodecyl)nicotinamide]",viability at 1 µM,[3]; [9],11.7%
same,viability at 10 µM,[3]; [9],10%
same,viability at 30 µM,[3]; [9],9.4%
same,viability at 50 µM,[3]; [9],8.33%
same,inhibition at 0.01 µM,[2]; compound 10 nM,-28.8%
same,inhibition at 0.1 µM,[2]; compound 100 nM,100%
same,inhibition at 1 µM,[2]; compound 1 μM,100%
same,inhibition at 10 µM,[2]; compound 10 μM,100%
same,inhibition at 30 µM,[2]; compound 30 μM,100%
same,inhibition at 50 µM,[2]; compound 50 μM,100%
same,viability at 1 µM,[8],10%
same,viability at 10 µM,[8],19.9%
same,viability at 30 µM,[8],7.34%
same,viability at 50 µM,[8],5.02%
